Laboratory results: paper PMC6695355, “Alanine Scanning Studies of the Antimicrobial Peptide Aurein 1.2” (Probiotics and Antimicrobial Proteins, 2018)
≈ marks a conversion by molar mass, not a printed value. Where a SMILES comes first, the peptide text is derived from it.

Experiments:
[1] = test system: E. coli ATCC 25922 biofilm; assay type: cell-based, Escherichia coli; details: ATCC 25922, 24 h
Outline: (§1)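 Broth microdilution per CLSI, 1–512 μg/mL; bacteria 0.5 × 10^5 CFU/mL in MHB, 37 °C 18 h; C. albicans 2 × 10^3 CFU/mL in RPMI-1640, 24 h; MIC = lowest concentration visibly inhibiting growth. MBEC: 24-h biofilms, PBS-rinsed, compound 24 h at 37 °C, resazurin read after 1 h. MBIC: compound with inoculum 24 h, then resazurin 1 h; cut-off ≤10% reduction versus controls.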

[2] = test system: E. coli ATCC 25922 biofilm formation; assay type: cell-based, Escherichia coli; details: ATCC 25922, 24 h
Outline: as §1

[3] = test system: E. coli ATCC 25922; assay type: cell-based, Escherichia coli; details: ATCC 25922, 18 h
Outline: as §1

[4] = test system: C. albicans ATCC 10231 biofilm; assay type: cell-based, Candida albicans; details: ATCC 10231, 24 h
Outline: (§2)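 Broth microdilution (CLSI), 1–512 μg/mL, 37 °C; S. aureus 0.5 × 10^5 CFU/mL MHB 18 h; C. albicans 2 × 10^3 CFU/mL RPMI-1640 24 h; MIC = no visible growth. Biofilm: 24 h preformed, PBS-washed, compound 24 h (MBEC) or compound + inoculum 24 h (MBIC); resazurin 1 h, cut-off ≤10%.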

[5] = test system: C. albicans ATCC 10231 biofilm formation; assay type: cell-based, Candida albicans; details: ATCC 10231, 24 h
Outline: as §2

[6] = test system: C. albicans ATCC 10231; assay type: cell-based, Candida albicans; details: ATCC 10231, 24 h
Outline: as §2

[7] = in vitro; assay type: in vitro ADME; details: bovine, serum
Outline: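 Peptides incubated in 25% (v/v) fetal bovine serum in PBS at 37 °C, quenched with ice-cold acetonitrile at t0 and 6 h. Intact peptide quantified by RP-HPLC-MS in selected ion recording mode; % remaining = peak area at 6 h / peak area at t0.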

[8] = test system: human red blood cells (RBCs); test: Hemolysis assay; assay type: cell-based; details: red cells of human, 1 h
Outline: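 Fresh EDTA-anticoagulated human erythrocytes were PBS-washed and used at 4% (v/v) with peptide at 1–256 μg/mL in PBS for 1 h at 37 °C. Hemoglobin release in the supernatant was read at 540 nm. PBS set 0% and 1% Triton X-100 set 100% hemolysis; run in triplicate.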

[9] = assay type: physicochemical; details: pH 7.4
[10] = test system: P. aeruginosa ATCC 9027; assay type: cell-based, Pseudomonas aeruginosa; details: ATCC 9027, 18 h
Outline: as §1

[11] = test system: P. aeruginosa ATCC 9027 biofilm formation; assay type: cell-based, Pseudomonas aeruginosa; details: ATCC 9027, 24 h
Outline: as §1

[12] = test system: P. aeruginosa ATCC 9027 biofilm; assay type: cell-based, Pseudomonas aeruginosa; details: ATCC 9027, 24 h
Outline: as §1

[13] = test system: E. faecalis PCM 2673; assay type: cell-based, Enterococcus faecalis; details: PCM 2673, 18 h
Outline: as §1

[14] = test system: E. faecalis PCM 2673 biofilm formation; assay type: cell-based, Enterococcus faecalis; details: 24 h
Outline: as §1

[15] = test system: E. faecalis PCM 2673 biofilm; assay type: cell-based, Enterococcus faecalis; details: 24 h
Outline: as §1

[16] = test system: S. aureus ATCC 25923; assay type: cell-based, Staphylococcus aureus; details: ATCC 25923, 18 h
Outline: as §2

[17] = test system: S. aureus ATCC 25923 biofilm formation; assay type: cell-based, Staphylococcus aureus; details: ATCC 25923, 24 h
Outline: as §2

[18] = test system: S. aureus ATCC 25923 biofilm; assay type: cell-based, Staphylococcus aureus; details: ATCC 25923, 24 h
Outline: as §2

Row | MIC, E. coli ATCC 25922 [3] | MIC, C. albicans ATCC 10231 [6] | remaining at 6 h, 0.125 mg/mL [7] | MIC, E. faecalis PCM 2673 [13] | SMILES | MBEC, E. coli ATCC 25922 [1] | MBIC, E. coli ATCC 25922 [2] | MBEC, C. albicans ATCC 10231 [4] | MBIC, C. albicans ATCC 10231 [5] | Percentage of hemolysis at 1 μg/mL [8] | Percentage of hemolysis at 2 μg/mL [8] | Percentage of hemolysis at 4 μg/mL [8] | Percentage of hemolysis at 8 μg/mL [8] | Percentage of hemolysis at 16 μg/mL [8] | Percentage of hemolysis at 32 μg/mL [8] | Percentage of hemolysis at 64 μg/mL [8] | Percentage of hemolysis at 128 μg/mL [8] | Percentage of hemolysis at 256 μg/mL [8] | MBIC, P. aeruginosa ATCC 9027 [11] | MBEC, P. aeruginosa ATCC 9027 [12] | MBIC, E. faecalis PCM 2673 [14] | also measured
1 | 64 µg/mL (≈ 43.7 µM) | 32 µg/mL (≈ 21.9 µM) | 77% | 64 µg/mL (≈ 43.7 µM) | CC[C@H](C)[C@H](NC(=O)[C@H](CCCCN)NC(=O)[C@H](CCCCN)NC(=O)[C@@H](NC(=O)[C@@H](NC(=O)[C@H](CC(=O)O)NC(=O)[C@H](Cc1ccccc1)NC(=O)[C@H](CC(C)C)NC(=O)CN)[C@@H](C)CC)[C@@H](C)CC)C(=O)N[C@@H](C)C(=O)N[C@@H](CCC(=O)O)C(=O)N[C@@H](C)C(=O)N[C@@H](Cc1ccccc1)C(N)=O [Peptide S12A] (H-GLFDIIKKIAEAF-NH2) | > 512 µg/mL | 32 µg/mL | 256 µg/mL | 2 µg/mL | 0.0% | 0.0% | 0.0% | 0.0% | 1.2% | 6.5% | 12.0% | 15.4% | 23.5% | >512 µg/mL | > 512 µg/mL | 128 µg/mL | Solubility in surfactant-free phosphate buffer [9]: poor solubility; MBEC, E. faecalis PCM 2673 [15]: 128 µg/mL; MIC, S. aureus ATCC 25923 [16]: 32 µg/mL (≈ 21.9 µM); MBIC, S. aureus ATCC 25923 [17]: 32 µg/mL; MBEC, S. aureus ATCC 25923 [18]: > 512 µg/mL
2 | 64 µg/mL (≈ 43.2 µM) | 32 µg/mL (≈ 21.6 µM) | 65% | 64 µg/mL (≈ 43.2 µM) | CC[C@H](C)[C@H](NC(=O)[C@H](CCCCN)NC(=O)[C@H](CCCCN)NC(=O)[C@@H](NC(=O)[C@@H](NC(=O)[C@H](CC(=O)O)NC(=O)[C@H](Cc1ccccc1)NC(=O)[C@H](CC(C)C)NC(=O)CN)[C@@H](C)CC)[C@@H](C)CC)C(=O)N[C@@H](C)C(=O)N[C@@H](CCC(=O)O)C(=O)N[C@@H](CO)C(=O)N[C@@H](Cc1ccccc1)C(N)=O [aurein 1.2] (H-GLFDIIKKIAESF-NH2) | 64 µg/mL | 128 µg/mL | 256 µg/mL | 2 µg/mL | 0.0% | 0.1% | 0.0% | 0.0% | 0.4% | 0.5% | 4.5% | 19.2% | 58.8% | 128 µg/mL | 512 µg/mL | 128 µg/mL | MIC, P. aeruginosa ATCC 9027 [10]: 256 µg/mL (≈ 173 µM); MBEC, E. faecalis PCM 2673 [15]: > 512 µg/mL; MIC, S. aureus ATCC 25923 [16]: 128 µg/mL (≈ 86.5 µM); MBIC, S. aureus ATCC 25923 [17]: 128 µg/mL; MBEC, S. aureus ATCC 25923 [18]: 128 µg/mL

Continued, molecule first:

Row | SMILES | MIC, E. coli ATCC 25922 [3] | MIC, C. albicans ATCC 10231 [6] | remaining at 6 h, 0.125 mg/mL [7] | MIC, E. faecalis PCM 2673 [13] | MBEC, E. coli ATCC 25922 [1] | MBIC, E. coli ATCC 25922 [2] | MBEC, C. albicans ATCC 10231 [4] | MBIC, C. albicans ATCC 10231 [5] | Percentage of hemolysis at 1 μg/mL [8] | Percentage of hemolysis at 2 μg/mL [8] | Percentage of hemolysis at 4 μg/mL [8] | Percentage of hemolysis at 8 μg/mL [8] | Percentage of hemolysis at 16 μg/mL [8] | Percentage of hemolysis at 32 μg/mL [8] | Percentage of hemolysis at 64 μg/mL [8] | Percentage of hemolysis at 128 μg/mL [8] | Percentage of hemolysis at 256 μg/mL [8] | MBIC, P. aeruginosa ATCC 9027 [11] | MBEC, P. aeruginosa ATCC 9027 [12] | MBIC, E. faecalis PCM 2673 [14] | also measured
3 | CC[C@H](C)[C@H](NC(=O)[C@H](CCCCN)NC(=O)[C@H](C)NC(=O)[C@@H](NC(=O)[C@@H](NC(=O)[C@H](CC(=O)O)NC(=O)[C@H](Cc1ccccc1)NC(=O)[C@H](CC(C)C)NC(=O)CN)[C@@H](C)CC)[C@@H](C)CC)C(=O)N[C@@H](C)C(=O)N[C@@H](CCC(=O)O)C(=O)N[C@@H](CO)C(=O)N[C@@H](Cc1ccccc1)C(N)=O [Peptide K7A] (H-GLFDIIAKIAESF-NH2) | > 512 µg/mL | > 512 µg/mL | 59% | 512 µg/mL (≈ 360 µM) | > 512 µg/mL | 64 µg/mL | > 512 µg/mL | 4 µg/mL | 0.2% | 0.1% | 0.0% | 0.0% | 0.1% | 3.4% | 0.7% | 3.0% | 4.6% | > 512 µg/mL | > 512 µg/mL | > 512 µg/mL | Solubility in surfactant-free phosphate buffer [9]: poor solubility; MIC, P. aeruginosa ATCC 9027 [10]: > 512 µg/mL; MBEC, E. faecalis PCM 2673 [15]: > 512 µg/mL; MIC, S. aureus ATCC 25923 [16]: > 512 µg/mL; MBIC, S. aureus ATCC 25923 [17]: > 512 µg/mL; MBEC, S. aureus ATCC 25923 [18]: > 512 µg/mL
4 | CC[C@H](C)[C@H](NC(=O)[C@H](C)NC(=O)[C@H](CCCCN)NC(=O)[C@@H](NC(=O)[C@@H](NC(=O)[C@H](CC(=O)O)NC(=O)[C@H](Cc1ccccc1)NC(=O)[C@H](CC(C)C)NC(=O)CN)[C@@H](C)CC)[C@@H](C)CC)C(=O)N[C@@H](C)C(=O)N[C@@H](CCC(=O)O)C(=O)N[C@@H](CO)C(=O)N[C@@H](Cc1ccccc1)C(N)=O [Peptide K8A] (H-GLFDIIKAIAESF-NH2) | 128 µg/mL (≈ 90 µM) | 64 µg/mL (≈ 45 µM) | 36% | 64 µg/mL (≈ 45 µM) | > 512 µg/mL | 32 µg/mL | > 512 µg/mL | 4 µg/mL | 0.1% | 0.0% | 0.0% | 0.0% | 0.0% | 5.5% | 16.1% | 49.3% | 89.6% | > 512 µg/mL | > 512 µg/mL | 128 µg/mL | Solubility in surfactant-free phosphate buffer [9]: poor solubility; MIC, P. aeruginosa ATCC 9027 [10]: > 512 µg/mL; MBEC, E. faecalis PCM 2673 [15]: > 512 µg/mL; MIC, S. aureus ATCC 25923 [16]: > 512 µg/mL; MBIC, S. aureus ATCC 25923 [17]: > 512 µg/mL; MBEC, S. aureus ATCC 25923 [18]: > 512 µg/mL
5 | CC[C@H](C)[C@H](NC(=O)[C@H](CCCCN)NC(=O)[C@H](CCCCN)NC(=O)[C@@H](NC(=O)[C@@H](NC(=O)[C@H](CC(=O)O)NC(=O)[C@H](Cc1ccccc1)NC(=O)[C@H](C)NC(=O)CN)[C@@H](C)CC)[C@@H](C)CC)C(=O)N[C@@H](C)C(=O)N[C@@H](CCC(=O)O)C(=O)N[C@@H](CO)C(=O)N[C@@H](Cc1ccccc1)C(N)=O [Peptide L2A] (H-GAFDIIKKIAESF-NH2) | 256 µg/mL (≈ 178 µM) | 256 µg/mL (≈ 178 µM) | 6% | 512 µg/mL (≈ 356 µM) | 512 µg/mL | 512 µg/mL | > 512 µg/mL | 8 µg/mL | 0.3% | 0.6% | 0.4% | 0.2% | 0.0% | 0.0% | 0.0% | 0.0% | 0.0% | > 512 µg/mL | > 512 µg/mL | > 512 µg/mL | MIC, P. aeruginosa ATCC 9027 [10]: 512 µg/mL (≈ 356 µM); MBEC, E. faecalis PCM 2673 [15]: > 512 µg/mL; MIC, S. aureus ATCC 25923 [16]: > 512 µg/mL; MBIC, S. aureus ATCC 25923 [17]: > 512 µg/mL; MBEC, S. aureus ATCC 25923 [18]: > 512 µg/mL
